Test results from patent US9980993B2, “Nutraceutical supplement with Lactobacillus rhamnosus” (NWO Stem Cure, LLC, priority 2014, dated 2018).

Tested on: human MSC
Test: Anti-oxidative stress testing, LIVE/DEAD Viability/Cytotoxicity Assay with H2O2
Assay type: cell-based
Conditions: MSCs, 12 hours of oxidative stress (100 μM H2O2)
Description: The percentage of live and dead cells was determined simultaneously by measuring intracellular esterase activity and plasma membrane integrity using the LIVE/DEAD® Viability/Cytotoxicity Assay Kit (Life Technologies). Briefly, human MSC were plated on 24 wells plate. On, next day cells were treated with ingredients and 100 μM H2O2 for 12 hr. The supernatant media from each well was collected into microtubes and cells were washed with 1×PBS, followed by collection of washes into respective microtubes to collect any floating or dead cells. The cells attached to the bottom of the plate were incubated in 1×PBS in a 37° C. incubator. The microtubes were centrifuged at 2000 rpm for 3 min to get the cell pellet. After removing supernatant, cell pellet was resuspended into 1×PBS containing 2 μM calcein AM and 4 μM ethidium/homodimer. […] The cells were then imaged under 10× objective using fluorescence microscope (Olympus IX71).
The percentage of live and dead cells was determined simultaneously by measuring intracellular esterase activity and plasma membrane integrity using the LIVE/DEAD® Viability/Cytotoxicity Assay Kit (Life Technologies). […] The cells were then imaged under 10× objective using fluorescence microscope (Olympus IX71).
Fluorescence microscope images showing a percentage of live and dead MSCs in 24 wells after 12 hours of treatment with oxidative stress (100 μM H2O2) were examined. […]

For `C=C1CC[C@H](O)C/C1=C/C=C1\CCC[C@]2(C)[C@@H]([C@H](C)CCCC(C)C)CC[C@@H]12` [Vitamin D alone (0.3 mg), cholecalciferol], the “Cell Survival Rate Measured by Fluorescence Microscope (%)” value was 2.5%.
